Data reported in patent US10906878B2, “Kinase inhibitors for the treatment of disease” (Dana-Farber Cancer Institute, Inc., priority 2013, dated 2021).
Where “and” joins values, the source holds several entries; their conditions need not be identical. Equal entries are not always repeated. Where two headings read alike, the source gives them in different places.

Legend:
EGFR Del Ba/F3 cells = EGFR Del Ba/F3 cells (Homo sapiens, UniProt P00533, cells depend on it, form not given); test: Ba/F3 cell growth inhibition (MTS assay), EGFR Del; assay type: cell-based; details: for IC50: Del, read-out: EGFR Ba/F3 cells IC 50 (nM) Assay 1 Del
Source text: (§1) The specific cDNAs encoding the oncogenic alterations (EGFR: Del 19, L858R, L718Q, L844V, Del/T790M, L858R/T790M, Del 19/L718Q, Del 19/L844V, Del 19/T790M/L718Q and L858R/T790M/L718Q; FGFR: TEL-FGFR1, TEL-FGFR2, TEL-FGFR1 V561M, TEL-FGFR2 V561M; ALK: EML4-ALK; ROS1: CD74-ROS1) were cloned into the pDNA-Dual (BD Biosciences) vector using standard molecular biology techniques. Mutations were introduced using site-directed mutagenesis (Agilent) with mutant specific primers according to the manufacturer's instructions. All constructs were confirmed by DNA sequencing. The constructs were introduced into Ba/F3 cells using retroviral infection. Polyclonal cell lines were established by puromycin selection and subsequently cultured in the absence of interleukin-3 (IL-3). Uninfected Ba/F3 cells or cell lines expressing green fluorescent protein (GFP) were used as controls.
(§2) Growth and inhibition of growth was assessed by MTS assay. This assay, a colorimetric method for determining the number of viable cells, is based on the bioreduction of 3-(4,5-dimethylthiazol-2-yl)-5-(3-carboxymethoxyphenyl)-2-(4-sulfophenyl)-2H-tetrazolium (MTS) by cells to a formazan product that is soluble in cell culture medium, can be detected spectrophotometrically and was performed according to the manufacturer's recommended conditions. Ba/F3 cells were exposed to treatment for 72 hours and the number of cells used per experiment determined empirically to assure linear growth kinetics over that time period. All experimental points were set up in six to twelve wells and all experiments were repeated at least three times. […] The curves were fitted using a non-linear regression model with a sigmoidal dose response.

[1] = biological target: EGFR Del/T790M/L718Q Ba/F3 cells (Homo sapiens, UniProt P00533, L718Q/T790M, cells depend on it, form not given); assay type: cell-based
Source text: as §1, §2

EGFR L858R Ba/F3 cells = EGFR L858R Ba/F3 cells (Homo sapiens (Human), UniProt P00533, L858R); test: Ba/F3 cell growth inhibition (MTS assay), EGFR L858R; assay type: cell-based; details: for IC50: L858R, read-out: EGFR Ba/F3 cells IC 50 (nM) Assay 1 L858R
Source text: as §1, §2

[2] = biological target: EGFR Del/T790M Ba/F3 cells (Homo sapiens, UniProt P00533, T790M, cells depend on it, form not given); test: Ba/F3 cell growth inhibition (MTS assay), EGFR Del/T790M; assay type: cell-based; details: for IC50: Del/T790M, read-out: EGFR Ba/F3 cells IC 50 (nM) Assay 1 Del/T790M
Source text: as §1, §2

KIF5B/Ret_V804M = test: Ba/F3 cell growth inhibition (MTS assay), KIF5B/Ret_V804M; assay type: cell-based; details: for KIF5B/Ret_V804M Ba/F3 cell growth (% control, 1.0 μM drug): Assay 1
Method: as §2

[3] = biological target: EGFR L858R/T790M Ba/F3 cells (Homo sapiens (Human), UniProt P00533, L858R/T790M); test: Ba/F3 cell growth inhibition (MTS assay), EGFR L858R/T790M; assay type: cell-based; details: for IC50: Assay 1, L858R/T790M, read-out: EGFR Ba/F3 cells IC 50 (nM) Assay 1 L858R/T790M
Source text: as §1, §2

[4] = biological target: EGFR L718Q/L858R Ba/F3 cells (Homo sapiens (Human), UniProt P00533, L718Q/L858R); test: Ba/F3 cell growth inhibition (MTS assay), EGFR L858R/L718Q; assay type: cell-based; details: for IC50: L718Q/L858R
[5] = biological target: EGFR Wild type vIII Ba/F3 cells (Homo sapiens (Human), UniProt P00533, DELINS30-297G); test: Ba/F3 cell growth inhibition (MTS assay), EGFR Wild type vIII; assay type: cell-based
[6] = Microsome Stability Mouse; assay type: in vitro ADME; details: mouse microsomes
[7] = biological target: EGFR L858R/T790M/L718Q Ba/F3 cells (Homo sapiens (Human), UniProt P00533, L718Q/L858R/T790M); test: Ba/F3 cell growth inhibition (MTS assay), EGFR L858R/T790M/L718Q; assay type: cell-based
Source text: as §1, §2

Row | Structure (SMILES) | EGFR activity (% Control, 1.0 μM drug) Assay 1 Del (EGFR Del Ba/F3 cells; 1.0 μM drug, Assay 1) | EGFR activity (% Control, 1.0 μM drug) Assay 2 Del (EGFR Del Ba/F3 cells; 1.0 μM drug, Assay 2) | EGFR activity (% Control, 1.0 μM drug) Assay 1 Del/T790M/L718Q ([1]; 1.0 μM drug, Assay 1) | EGFR activity (% Control, 1.0 μM drug) Assay 2 Del/T790M/L718Q ([1]; 1.0 μM drug, Assay 2) | EGFR activity (% Control, 1.0 μM drug) Assay 1 L858R (EGFR L858R Ba/F3 cells; 1.0 μM drug, Assay 1) | EGFR activity (% Control, 1.0 μM drug) Assay 2 L858R (EGFR L858R Ba/F3 cells; 1.0 μM drug) | EGFR activity (% Control, 1.0 μM drug) Assay 1 Del/T790M ([2]; 1.0 μM drug, Assay 1) | EGFR activity (% Control, 1.0 μM drug) Assay 2 Del/T790M ([2]; 1.0 μM drug, Assay 2) | EGFR activity (% Control, 1.0 μM drug) Assay 1 KIF5B/Ret_V804M (KIF5B/Ret_V804M) | EGFR activity (% Control, 1.0 μM drug) Assay 1 Del (EGFR Del Ba/F3 cells) | EGFR activity (% Control, 1.0 μM drug) Assay 1 Del/T790M [2] | KIF5B/Ret_V804M Ba/F3 cell growth (% control, 1.0 μM drug) (KIF5B/Ret_V804M) | IC50 (EGFR Del Ba/F3 cells; Assay 1) | IC50 [3] | IC50 (EGFR L858R Ba/F3 cells; Assay 1) | IC50 ([2]; Assay 1) | Microsome Stability Mouse min [6] | other results
1 | C=CC(=O)Nc1cccc(N(C(=O)Nc2ccccc2Cl)c2cc(Nc3ccc(N4CCN(C)CC4)cc3OC)ncn2)c1 [Compound 11A] | 3 % Control | 4 % Control | 84 % Control | 82 % Control | 2 % Control | 3 % Control | 1 % Control | 5 % Control | 103 % Control | – | – | – | – | – | – | – | – | –
2 | Cc1ccc(C(=O)Nc2ccc(CN3CCN(C)CC3)c(C(F)(F)F)c2)cc1C#Cc1cnc2cccnn12 [Ponatinib] | – | – | 48 % Control | – | – | – | – | – | – | 17 % Control | 79 % Control | 2 % Control | – | – | – | – | – | EGFR activity (% Control, 1.0 μM drug) Assay 1 L858R (EGFR L858R Ba/F3 cells): 98 % Control
3 | C=CC(=O)Nc1cccc(N(C(=O)Oc2ccccc2)c2ccnc(Nc3ccc(N4CCN(C)CC4)cc3OC)n2)c1 [Compound 10A] | 4 % Control | 1 % Control | 76 % Control | 84 % Control | 4 % Control | 3 % Control | 2 % Control | 2 % Control | – | – | – | 91 % Control | 4.64 nM | 14.8 nM | 1.52 nM | 22.9 nM | 18.5 min | IC50 ([1]; read-out: EGFR Ba/F3 cells IC 50 Assay 1 Del/T/L718Q, Assay 1, Del/T/L718Q): > 1000 nM and 1000 nM; IC50 ([4]; read-out: EGFR Ba/F3 cells IC 50 (nM) Assay 1 L718Q/L858R, Assay 1): 146 nM; IC50 ([4]; read-out: EGFR Ba/F3 cells IC 50 (nM) Assay 2 L718Q/L858R, Assay 2): 204 nM; IC50 ([5]; read-out: EGFR Ba/F3 cells IC 50 (nM) Assay 1 Wild type vIII): 28.1 nM; IC50 ([7]; read-out: EGFR Ba/F3 cells IC 50 (nM) Assay 1 T/L/L718Q; Assay 1; T/L/L718Q): 270 nM
4 | C=CC(=O)Nc1cccc(N(C(=O)NCc2cccs2)c2cc(Nc3ccc(N4CCOCC4)cc3OC)ncn2)c1 [Compound 55A] | – | – | – | – | – | – | – | – | – | – | – | – | 2 nM | 2.4 nM | 0.5 nM | 15.9 nM | 1.8 min | IC50 ([5]; Assay 1, read-out: EGFR Ba/F3 cells IC 50 (nM) Assay 1 Wild type vIII): 2.3 nM; IC50 ([7]; Assay 1; T/L/L718Q; read-out: EGFR Ba/F3 cells IC 50 (nM) Assay 1 T/L/L718Q): 657 nM
5 | C=CC(=O)Nc1ccc(OC)c(Nc2cc(N(C(=O)Nc3c(C)cccc3C)c3ccc(N4CCN(CC)CC4)cc3)ncn2)c1 [Compound 9A] | 3 % Control | 4 % Control | 90 % Control | 86 % Control | 2 % Control | 2 % Control | 2 % Control | 39 % Control | 93 % Control | – | – | – | – | – | – | – | – | –
6 | C=CC(=O)Nc1cccc(Oc2nc(Nc3ccc(N4CCN(C)CC4)cc3OC)ncc2Cl)c1 [WZ4002, reference compound] | – | – | – | – | 2 % Control | 2 % Control | – | – | 93 % Control | 3 % Control | 1 % Control | – | – | – | – | – | – | EGFR activity (% Control, 1.0 μM drug) Assay 2 Del (EGFR Del Ba/F3 cells): 6 % Control; EGFR activity (% Control, 1.0 μM drug) Assay 1 Del/T790M/L718Q [1]: 91 % Control; EGFR activity (% Control, 1.0 μM drug) Assay 2 Del/T790M/L718Q [1]: 85 % Control; EGFR activity (% Control, 100 nM drug) L858R/T790M ([3]; Table F): 3 % Control; EGFR activity (% Control, 100 nM drug) L858R/T790M ([3]; Table G): 30 % Control; EGFR activity (% Control, 100 nM drug) L858R (EGFR L858R Ba/F3 cells; Table F): 2 % Control; EGFR activity (% Control, 100 nM drug) L858R (EGFR L858R Ba/F3 cells; Table G): 0 % Control; EGFR activity (% Control, 100 nM drug) DEL/T790M [2]: 2 % Control; EGFR activity (% Control, 100 nM drug) Del/T790M [2]: 6 % Control; EGFR activity (% Control, 1.0 μM drug) Assay 2 Del/T790M [2]: 3 % Control; EGFR activity (% Control, 100 nM drug) L858R/L718Q ([4]; 100 nM drug, Table F): 94 % Control; EGFR activity (% Control, 100 nM drug) L858R/T790M/L718Q ([7]; 100 nM drug; Table F): 104 % Control
